Source: patent publication US20180264001A1 (Teva Pharmaceuticals International GmbH, priority 2015, published 2018)

Conditions: Canine plasma +1% Tocophersolan, 37° C.
Method: Samples were protected from light under constant agitation using a vortex mixer. The stability of the API under these conditions was assessed at timed intervals (T=0, 2, 4, 21, 24 hours and 2 and 3 days).

## Cc1cc2c(s1)Nc1ccccc1N=C2N1CCN(C)CC1.O.O=C(O)c1cc2ccccc2c(Cc2c(O)c(C(=O)O)cc3ccccc23)c1O [olanzapine pamoate monohydrate]
  Concentration (saturated solubility): 817.47 µg/mL
